Data: US5362724A, “Thioalkylthio carbacephalosporin derivatives” (Shionogi & Co., Ltd., priority 1992, dated 1994)
In brackets after ≈: the same amount, converted by molar mass.

Columns and labels:
[1] = test system: S. maecescense ATCC 13880; experiment: In vitro antibacterial activity (MIC, two-fold agar dilution) against S. marcescense ATCC 13880; assay type: cell-based, Seratia marcescense
Experimental: (§1) The in vitro antibacterial activity of a compound as prepared in the foregoing Example was evaluated as follows. A compound to be tested was dissolved in 0.01N aqueous solution of sodium hydrogen carbonate and the solution was applied to an agar plate and the minimal inhibitory concentration (MIC) against each bacterium was measured by two-fold dilution method according to the standard method of the Japan Society of Chemotherapy.
(§2) In the assay, as a control compound, 7β-[(Z)-2-(2-amino-4-thiazolyl)-2-hydroxyiminoacetamido]-3-(1,2,3-triazol-4-yl)thiomethylthio-3-cephem-4-carboxylic acid (a thiomethylthio cephalosporin disclosed in U.S. patent application Ser. No. 07/729,413, filed on Jul. 12, 1991, now U.S. Pat. No. 5,214,037, and EPO Application Publication No. 0 467 647 A2) was used.
(§3) In the tables, Compound A is a compound of the invention and Compound B is a control compound.

[2] = test system: E. cloacae SR233; experiment: In vitro antibacterial activity (MIC, two-fold agar dilution) against E. cloacae SR233; assay type: cell-based; conditions: Enterobacter cloacae
Experimental: as §1, §2, §3

[3] = Binding ability to plasma proteins; assay type: in vitro ADME; conditions: tentative value
[4] = test system: E. coli EC-14; experiment: In vitro antibacterial activity (MIC, two-fold agar dilution) against E. coli EC-14; assay type: cell-based; conditions: Escherichia coli, EC14
Experimental: as §1, §2, §3

[5] = test system: E. coli JC-2; experiment: In vitro antibacterial activity (MIC, two-fold agar dilution) against E. coli JC-2; assay type: cell-based; conditions: Escherichia coli, JC2
Experimental: as §1, §2, §3

[6] = test system: E. coli SR377; experiment: In vitro antibacterial activity (MIC, two-fold agar dilution) against E. coli SR377; assay type: cell-based; conditions: Escherichia coli
Experimental: as §1, §2, §3

[7] = test system: E. coli SR73; experiment: In vitro antibacterial activity (MIC, two-fold agar dilution) against E. coli SR73; assay type: cell-based; conditions: Escherichia coli
Experimental: as §1, §2, §3

[8] = test system: E. cloacae ATCC 13047; experiment: In vitro antibacterial activity (MIC, two-fold agar dilution) against E. cloacae ATCC 13047; assay type: cell-based; conditions: Enterobacter cloacae, ATCC13047
Experimental: as §1, §2, §3

[9] = In vivo pharmacokinetics, blood level in mice after administration; conditions: mouse, 10 mg/kg, 3 hr after administration
Experimental: The in vivo pharmacokinetics was also investigated in mice by measuring the blood level at 3 hr after administrating a test compound to a mouse (10 mg/kg).
as §2, §3

[10] = test system: K. pneumoniae SRI; experiment: In vitro antibacterial activity (MIC, two-fold agar dilution) against K. pneumoniae SRI; assay type: cell-based; conditions: Klebsiella pneumoniae
Experimental: as §1, §2, §3

SMILES | MIC [1] | MIC [2] | fraction unbound [3] | MIC [4] | MIC [5] | MIC [6] | MIC [7] | MIC [8] | concentration at 3 h [9] | MIC [10]
Nc1nc(/C(=N/O)C(=O)N[C@@H]2C(=O)N3C(C(=O)O)=C(SCSc4c[nH]nn4)CS[C@H]23)cs1 [Compound B, 7β-[(Z)-2-(2-amino-4-thiazolyl)-2-hydroxyiminoacetamido]-3-(1,2,3-triazol-4-yl)thiomethylthio-3-cephem-4-carboxylic acid] | 3.2 µg/mL (≈ 6.22 µM) | 0.8 µg/mL (≈ 1.55 µM) | 0.04 | 0.1 µg/mL (≈ 0.194 µM) | 0.3 µg/mL (≈ 0.583 µM) | 0.8 µg/mL (≈ 1.55 µM) | 1.6 µg/mL (≈ 3.11 µM) | 100 µg/mL (≈ 194 µM) | 18000 ng/mL | 0.1 µg/mL (≈ 0.194 µM)
Nc1nc(/C(=N/O)C(=O)N[C@@H]2C(=O)N3C(C(=O)O)=C(SCSc4c[nH]nn4)CC[C@H]23)cs1 [Compound A, 7β-[(Z)-2-(2-Aminothiazol-4-yl)-2-hydroxyiminoacetamido]-3-(1,2,3-triazol-4-ylthiomethylthio)-1-carba-3-cephem-4-carboxylic acid] | 0.2 µg/mL (≈ 0.403 µM) | 0.1 µg/mL (≈ 0.201 µM) | 0.1 | 0.025 µg/mL (≈ 0.0503 µM) | 0.05 µg/mL (≈ 0.101 µM) | 0.2 µg/mL (≈ 0.403 µM) | 0.39 µg/mL (≈ 0.785 µM) | 12.5 µg/mL (≈ 25.2 µM) | 82000 ng/mL | 0.025 µg/mL (≈ 0.0503 µM)
